Among the test systems are SNB-75; SN12C; UACC-257; PC-3; ACHN; MDA-MB-435; OVCAR-5; NCI-H226; KM12; A549; SF-539; UO-31; MOLT-4; SK-OV-3; RXF 393; HOP-92; SW-620; M14; SK-MEL-28; OVCAR-3.
Holding throughout (assay): growth of human tumour cells (NCI), 48 h

SMILES strings stand for the structures.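 Cultured in 96-well plates, cells were exposed to test compound for 48 hours across five concentrations. GI50 is the concentration that inhibits growth by half.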 The source made the active and inactive calls. Cut-off read from the data, not from the text of the source: active = GI50 up to about 1.1 µM and inactive = higher.

Ten molecules from ChEMBL document CHEMBL1201862, “PubChem BioAssay data set” (2004) can be followed below.

Regarding `O=C1NC2c3c(I)sc(I)c3C(=O)C2O1` (stereo not given), the GI50 in the experiment with SNB-75 was 13.1 µM (inactive); with SN12C, 4.27 µM (inactive); with UACC-257 it was 4.97 µM (inactive); in the experiment with PC-3, 6.9 µM (inactive); in the experiment on ACHN it was 3.05 µM (inactive); with MDA-MB-435, 4.45 µM (inactive). The GI50 with OVCAR-5 was 14.3 µM (inactive); in the experiment on NCI-H226, 5.55 µM (inactive); in the experiment with KM12, 11.6 µM (inactive); in the experiment with A549, 14.1 µM (inactive); in the experiment with SF-539, 2.56 µM (inactive); in the experiment with UO-31, 3.82 µM (inactive). Moreover, the GI50 with MOLT-4 is 3.58 µM (inactive); with SK-OV-3 it was 17.3 µM (inactive); with RXF 393 it was 5.56 µM (inactive); with HOP-92, 3.38 µM (inactive); with SW-620, 2.82 µM (inactive); with M14, 2.07 µM (inactive). In addition, the GI50 is 7.41 µM (inactive) in the experiment on SK-MEL-28 and 3.31 µM (inactive) in the experiment with OVCAR-3.

For `C1=CC2=CC=CC3c4nc5ccc6ccccc6c5nc4C(=C1)C23` (stereo not given), the GI50 in the experiment on SNB-75, with SN12C, in the experiment with UACC-257, in the experiment on PC-3, in the experiment on ACHN and in the experiment with MDA-MB-435 was > 100 µM (inactive) in each case. In addition, the GI50 in the experiment on OVCAR-5, with NCI-H226, in the experiment with KM12, with A549, in the experiment with SF-539 and in the experiment with UO-31 was > 100 µM (inactive) in each case. The GI50 in the experiment on MOLT-4, in the experiment on SK-OV-3, in the experiment with RXF 393, in the experiment on HOP-92, in the experiment on SW-620 and with M14 was > 100 µM (inactive) throughout. Also, the GI50 in the experiment on SK-MEL-28 and with OVCAR-3 was > 100 µM (inactive) each time.

Turning to `COC1/C=C/C(C)C(OC)CC(O)/C=C/C(C)C(C(C)C(OC)C(C)CCC(=O)C(C)C(C/C=C/N(C)C=O)OC)OC(=O)/C=C/C=C(\C)CC(OC)CC2=CC(=O)O[C@@H](C(C)C(OC)C1)[C@H]2O` (stereo not given in full), the GI50 in the experiment on SNB-75 is 0.0697 µM (active); in the experiment on SN12C it was 0.379 µM (active); in the experiment on UACC-257, 0.11 µM (active); in the experiment with PC-3 it was 0.0873 µM (active); with ACHN, 0.091 µM (active); with MDA-MB-435, 0.182 µM (active). Also, the GI50 in the experiment on OVCAR-5 is 0.177 µM (active); in the experiment on NCI-H226, 0.122 µM (active); in the experiment on KM12, 0.0753 µM (active); in the experiment on A549, 0.119 µM (active); with SF-539, 0.114 µM (active); with UO-31, 0.0998 µM (active). Further, the GI50 with MOLT-4 is 0.214 µM (active); in the experiment on SK-OV-3, 0.151 µM (active); with RXF 393 it was 0.0735 µM (active); in the experiment on HOP-92, 0.0634 µM (active); with SW-620, 0.0664 µM (active); with M14, 0.056 µM (active). The values for the GI50 in the experiment on SK-MEL-28 and in the experiment on OVCAR-3 were 0.0767 µM (active) and 0.049 µM (active), respectively.

For the molecule `O=C(O)C1C(C(=O)O)C23CC2(C(=O)O)C2(C(=O)O)CCC3=C3CCCC312` (stereo not given), the GI50 in the experiment on SNB-75 was 11.2 µM (inactive); in the experiment with SN12C, 8.87 µM (inactive); in the experiment with UACC-257 it was 3.39 µM (inactive); in the experiment on PC-3, 5.45 µM (inactive); in the experiment on ACHN, 9.51 µM (inactive); in the experiment on MDA-MB-435, 7.73 µM (inactive). Also, the GI50 was 16.6 µM (inactive) in the experiment on OVCAR-5; 10.4 µM (inactive) in the experiment on NCI-H226; 14 µM (inactive) in the experiment with KM12; 6.34 µM (inactive) with A549; 4.67 µM (inactive) in the experiment with SF-539; 8.97 µM (inactive) in the experiment with UO-31. Further, the GI50 is 4.99 µM (inactive) with MOLT-4; 3.89 µM (inactive) in the experiment with SK-OV-3; 6.84 µM (inactive) in the experiment with RXF 393; 8.3 µM (inactive) in the experiment on HOP-92; 6.34 µM (inactive) in the experiment on SW-620; 6.84 µM (inactive) in the experiment with M14. Also, the GI50 in the experiment on SK-MEL-28 is 5.97 µM (inactive); with OVCAR-3, 2.5 µM (inactive).

For `O=C1C=CC(=O)c2ccc(=O)ccc21`, the GI50 with SNB-75 was 19.9 µM (inactive); in the experiment with SN12C, 17.3 µM (inactive); in the experiment with UACC-257 it was 17.1 µM (inactive); with PC-3, 17.8 µM (inactive); in the experiment with ACHN, 9.68 µM (inactive); in the experiment with MDA-MB-435, 21.5 µM (inactive). Moreover, the GI50 in the experiment with OVCAR-5 is 19.9 µM (inactive); in the experiment with NCI-H226, 34.8 µM (inactive); in the experiment with KM12, 19.1 µM (inactive); with A549, 30.1 µM (inactive); in the experiment with SF-539, 21.8 µM (inactive); with UO-31 it was 15 µM (inactive). Further, the GI50 is 1.87 µM (inactive) with MOLT-4; 24.1 µM (inactive) with SK-OV-3; 6.31 µM (inactive) in the experiment with RXF 393; 1.89 µM (inactive) in the experiment on HOP-92; 3.74 µM (inactive) in the experiment with SW-620; 14.8 µM (inactive) with M14. Moreover, the GI50 in the experiment with SK-MEL-28 was 21.4 µM (inactive); in the experiment on OVCAR-3 it was 7.85 µM (inactive).

On to `COCOC1C=CCCCC2=CC(C)=C(CC1)O2` (stereo not given), for which the GI50 with SNB-75, in the experiment with SN12C, in the experiment on UACC-257, with PC-3, with ACHN and in the experiment on MDA-MB-435 was > 100 µM (inactive) each time. For the same molecule, the GI50 in the experiment on OVCAR-5, in the experiment with NCI-H226, with KM12, with A549, in the experiment with SF-539 and with UO-31 was > 100 µM (inactive) throughout. The GI50 in the experiment with MOLT-4 was 42.3 µM (inactive); in the experiment with SK-OV-3, > 100 µM (inactive); with RXF 393, > 100 µM (inactive); with HOP-92, > 100 µM (inactive); with SW-620 it was > 100 µM (inactive); in the experiment with M14 it was > 100 µM (inactive). Further, the GI50 is > 100 µM (inactive) in the experiment on SK-MEL-28 and 68.4 µM (inactive) with OVCAR-3.

As to `COc1cc(O)c2c(c1)OCC1(Cc3cc(OC)c(OC)cc31)C2=O` (stereo not given), the GI50 was 78.3 µM (inactive) in the experiment on SNB-75; > 100 µM (inactive) in the experiment with SN12C; 43.1 µM (inactive) in the experiment with UACC-257; > 100 µM (inactive) with PC-3; > 100 µM (inactive) in the experiment on ACHN; 29 µM (inactive) with MDA-MB-435. The GI50 in the experiment with OVCAR-5 was > 100 µM (inactive); in the experiment on NCI-H226, 46 µM (inactive); with KM12, > 100 µM (inactive); in the experiment on A549, 19.5 µM (inactive); with SF-539, > 100 µM (inactive); with UO-31, > 100 µM (inactive). The GI50 is 47.3 µM (inactive) in the experiment on MOLT-4; > 100 µM (inactive) in the experiment on SK-OV-3; > 100 µM (inactive) with RXF 393; 23.3 µM (inactive) in the experiment on HOP-92; > 100 µM (inactive) in the experiment with SW-620; > 100 µM (inactive) in the experiment with M14. Besides, the GI50 is > 100 µM (inactive) with SK-MEL-28 and 34 µM (inactive) with OVCAR-3.

Regarding `O=C1CC(c2n[nH]c3ccccc23)C(=O)N1c1ccccc1` (stereo not given), the GI50 with SNB-75, with SN12C, with UACC-257, in the experiment with PC-3, with ACHN and in the experiment on MDA-MB-435 was > 100 µM (inactive) throughout. In addition, the GI50 with OVCAR-5 is > 100 µM (inactive); in the experiment on NCI-H226, > 88.5 µM (inactive); with KM12 it was > 100 µM (inactive); in the experiment on A549 it was > 100 µM (inactive); in the experiment with SF-539, > 100 µM (inactive); in the experiment with UO-31, > 100 µM (inactive). The GI50 with MOLT-4 was > 74 µM (inactive); in the experiment with SK-OV-3 it was > 100 µM (inactive); in the experiment on RXF 393, > 100 µM (inactive); with HOP-92 it was > 78.2 µM (inactive); in the experiment on SW-620 it was > 84.1 µM (inactive); in the experiment on M14 it was > 100 µM (inactive). Also, the GI50 with SK-MEL-28 and in the experiment with OVCAR-3 was > 100 µM (inactive) in each case.

For the molecule `COc1cc(/C=C/C(=O)N[C@@H]2C(=O)N3[C@@H]2SC(C)(C)[C@@H]3C(=O)O)ccc1O`, the GI50 in the experiment with SNB-75, in the experiment on SN12C, with UACC-257, in the experiment on PC-3, in the experiment with ACHN and in the experiment on MDA-MB-435 was > 100 µM (inactive) in each case. Moreover, the GI50 in the experiment with OVCAR-5, in the experiment on NCI-H226, with KM12, in the experiment with A549, in the experiment with SF-539 and in the experiment with UO-31 was > 100 µM (inactive) throughout. In addition, the GI50 with MOLT-4, in the experiment with SK-OV-3, with RXF 393, in the experiment on HOP-92, with SW-620 and in the experiment with M14 was > 100 µM (inactive) throughout. In addition, the GI50 in the experiment on SK-MEL-28 and in the experiment on OVCAR-3 was > 100 µM (inactive) throughout.

Take `C[C@H]1CCC2C(OC(=O)[C@@H]2CN(C)C)[C@]2(C)C(=O)C=CC12O` (stereo not given in full): the GI50 is 4.6 µM (inactive) in the experiment with SNB-75; 4.09 µM (inactive) in the experiment with SN12C; 4.86 µM (inactive) in the experiment on UACC-257; 14.2 µM (inactive) in the experiment with PC-3; 2.17 µM (inactive) in the experiment on ACHN; 4.47 µM (inactive) in the experiment with MDA-MB-435. Further, the GI50 was 14.1 µM (inactive) in the experiment on OVCAR-5; 7.01 µM (inactive) in the experiment on NCI-H226; 4.69 µM (inactive) in the experiment with KM12; 24.8 µM (inactive) in the experiment with A549; 3.64 µM (inactive) in the experiment on SF-539; 10.9 µM (inactive) in the experiment on UO-31. Further, the GI50 is 2.82 µM (inactive) in the experiment with MOLT-4; 16.9 µM (inactive) in the experiment on SK-OV-3; 1.65 µM (inactive) in the experiment with RXF 393; 2.79 µM (inactive) in the experiment with HOP-92; 3.24 µM (inactive) in the experiment on SW-620; 4.06 µM (inactive) with M14. For the same molecule, the figures for the GI50 in the experiment with SK-MEL-28 and in the experiment on OVCAR-3 were 2.43 µM (inactive) and 3.76 µM (inactive), respectively.
